In patent US20090030086A1, “ANTIMICROBIAL AGENTS” (priority 2005, published 2009):
Values after ≈ are worked out from the molar mass of the structure shown. Like-named read-outs stand apart in the source and are kept apart here.

Assays:
S. aureus ATCC 29213 [1] = assay: MIC assay; assay type: cell-based, Staphylococcus aureus; details: S. aureus ATCC 29213, Mueller-Hinton broth pH 7.2, aerobic, 37° C., 24 hours
Outline: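 Broth microdilution in Mueller-Hinton broth at pH 7.2, incubated aerobically at 37 °C for 24 h and run in duplicate with medium-only and solvent/inoculum controls. The MIC was the lowest concentration whose well stayed visibly clear.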

S. aureus ATCC 29213 [2] = assay: MBC assay; assay type: cell-based, Staphylococcus aureus
Outline: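 Follows an MIC assay; samples sub-cultured onto non-selective agar and inspected visually for growth to give the minimum lethal concentration. Culture on Mueller-Hinton medium, pH 7.2, aerobic, 37° C, 24 hours.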

S. aureus ATCC 29213 [3] = assay: Disc diffusion assay (DDA); assay type: cell-based, Staphylococcus aureus; details: S. aureus ATCC 29213, unsupplemented agar, 200 μg per disc (thymoquinone 50 μg, 2,6-dimethoxy-p-benzoquinone 100 μg); for zone of inhibition at 200 µg/disc: Staphylococcus aureus, ATCC29213, read-out: DDA (diameter of zone of inhibition)
Outline: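 Paper discs loaded with test compound (usually 200 μg/disc), solvent evaporated ≥30 min, placed on inoculated Mueller-Hinton agar pH 7.2. Incubated aerobically at 37 °C for 24 h; inhibition zone diameter measured and area calculated as π(D/2)^2.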

S. aureus ATCC 29213 [4] = assay: Supplemented disc diffusion assay; assay type: cell-based, Staphylococcus aureus; details: S. aureus ATCC 29213, 200 μg per disc (thymoquinone 50 μg, 2,6-dimethoxy-p-benzoquinone 100 μg); for zone of inhibition at 200 µg/disc: Staphylococcus aureus, ATCC29213, 24 h
Outline: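 Paper discs loaded with compound (200 μg per disc for most assays) placed on inoculated Mueller-Hinton agar, pH 7.2, supplemented with 5% v/v defibrinated horse blood, 1% v/v Tween 80 and 100 mM NaCl. Aerobic incubation at 37° C for 24 h; inhibition zone diameter measured.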

P. acnes NCTC 737 [5] = assay: MIC assay; assay type: cell-based, Propionibacterium acnes; details: P. acnes NCTC 737, Wilkins-Chalgren broth pH 6.0, anaerobic, 37° C., 72 hours
Outline: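 Broth microdilution in Wilkins-Chalgren Anaerobe broth pH 6.0, inoculated with freshly grown P. acnes NCTC 737 and incubated anaerobically at 37° C for 72 hours. MIC is the lowest compound concentration leaving the well visually clear, read on a light box. Run in duplicate with medium-only and solvent-plus-inoculum controls.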

P. acnes NCTC 737 [6] = assay: MBC assay; assay type: cell-based, Propionibacterium acnes; details: P. acnes NCTC 737
Outline: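 Plates were then checked visually for growth. The MBC is the lowest lethal concentration; cultures were grown on Wilkins-Chalgren Anaerobe Medium at pH 6.0.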

P. acnes NCTC 737 [7] = assay: Disc diffusion assay (DDA); assay type: cell-based, Propionibacterium acnes; details: P. acnes NCTC 737, unsupplemented agar, 200 μg per disc (2,6-dimethoxy-p-benzoquinone 100 μg); for zone of inhibition at 200 µg/disc: Cutibacterium acnes, NCTC737, read-out: DDA (diameter of zone of inhibition)
P. acnes NCTC 737 [8] = assay: Supplemented disc diffusion assay; assay type: cell-based, Propionibacterium acnes; details: P. acnes NCTC 737, 200 μg per disc (2,6-dimethoxy-p-benzoquinone 100 μg); for zone of inhibition at 200 µg/disc: Cutibacterium acnes, NCTC737, 72 h
Outline: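 Propionibacterium discs loaded with 200 μg compound on Wilkins-Chalgren Anaerobe agar, pH 6.0, supplemented with Tween 80 (1% v/v) and NaCl (100 mM); anaerobic incubation at 37 °C for 72 h. Inhibition zone diameter measured by automated zone sizer.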

[9] = Staphylococcus aureus, ATCC29213, read-out: MIC
[10] = Staphylococcus aureus, ATCC29213, read-out: MBC
[11] = Tween 80 at 1% v/v, read-out: DDA + lipid
[12] = defibrinated horse blood 5% v/v, read-out: DDA + blood
[13] = sodium chloride 100 mM, read-out: DDA + salt
[14] = Cutibacterium acnes, NCTC737, read-out: MIC
[15] = Cutibacterium acnes, NCTC737, read-out: MBC

Row | MIC/MBC ratio (S. aureus ATCC 29213 [2]) | MIC/MBC ratio (P. acnes NCTC 737 [6]) | MIC (S. aureus ATCC 29213 [1]; [9]) [µg/mL] | MIC (P. acnes NCTC 737 [5]; [14]) [µg/mL] | Compound | MBC (S. aureus ATCC 29213 [2]; [10]) [µg/mL] | zone of inhibition at 200 µg/disc (S. aureus ATCC 29213 [3]) [mm] | zone of inhibition at 200 µg/disc (S. aureus ATCC 29213 [4]; [11]) [mm] | zone of inhibition at 200 µg/disc (S. aureus ATCC 29213 [4]; [12]) [mm] | zone of inhibition at 200 µg/disc (S. aureus ATCC 29213 [4]; [13]) [mm] | MBC (P. acnes NCTC 737 [6]; [15]) [µg/mL] | zone of inhibition at 200 µg/disc (P. acnes NCTC 737 [7]) [mm] | zone of inhibition at 200 µg/disc (P. acnes NCTC 737 [8]; [11]) [mm] | zone of inhibition at 200 µg/disc (P. acnes NCTC 737 [8]; [13]) [mm] | also measured
1 | 0.5 | 0.25 |  |  | Cc1cc(O)cc(C)c1O [2,6-dimethyl-p-hydroquinone] |  |  |  |  |  |  |  |  |  | MIC (S. aureus ATCC 29213 [1]): 3.9 µg/mL (≈ 28.2 µM); MBC (S. aureus ATCC 29213 [2]): 7.8 µg/mL (≈ 56.5 µM); DDA (diameter of zone of inhibition) (S. aureus ATCC 29213 [3]): 40.88 mm; DDA + lipid (S. aureus ATCC 29213 [4]; Tween 80 at 1% v/v): 47.94 mm; DDA + blood (S. aureus ATCC 29213 [4]; defibrinated horse blood 5% v/v): 25.53 mm; DDA + salt (S. aureus ATCC 29213 [4]; sodium chloride 100 mM): 43.89 mm; MIC (P. acnes NCTC 737 [5]): 7.8 µg/mL (≈ 56.5 µM); MBC (P. acnes NCTC 737 [6]): 31.25 µg/mL (≈ 226 µM); DDA (diameter of zone of inhibition) (P. acnes NCTC 737 [7]): 0.0 mm; DDA + lipid (P. acnes NCTC 737 [8]; Tween 80 at 1% v/v): 0.0 mm; DDA + salt (P. acnes NCTC 737 [8]; sodium chloride 100 mM): 0.0 mm
2 | 0.5 | 0.5 | 7.8 (≈ 35.1 µM) | 7.8 (≈ 35.1 µM) | CC(C)(C)c1cc(C(C)(C)C)c(O)cc1O [4,6-di-t-butylresorcinol] | 15.6 (≈ 70.2 µM) | 8.09 | 0 | 0 | 8.4 | 15.6 (≈ 70.2 µM) | 36.6 | 0 | 37.8 | 
3 | 1 | 1 | 7.8 (≈ 35.4 µM) | 15.6 (≈ 70.8 µM) | CC(C)(C)C1=CC(=O)C(=O)C(C(C)(C)C)=C1 [3,5-di-t-butyl-o-benzoquinone] | 7.8 (≈ 35.4 µM) | 23.4 | 17.4 | 15.9 | 23 | 15.6 (≈ 70.8 µM) | 31.8 | 26.4 | 40.5 | 
